Measurements: patent publication US9580458B2, “Polymorphic form of sodium hyodeoxycholate (NaHDC) and its preparation process” (PRODOTTI CHIMICI E […].P.A., priority 2013, dated 2017)
“Also recorded” adds a separate entry of the source.

Columns and labels:
Type in all cases: physicochemical
[1] = Dynamic vapour sorption (DVS) analysis in isotherm at 25° C.; conditions: for water still contained at the inflection at about 40% RH in desorption / weight change preserved in desorption up to 50% RH / change in weight in sorption at 20% RH / weight change in sorption at 70% RH / weight change in sorption at 90% RH / weight change at 0% RH in desorption / weight change in sorption at 30% RH: DVS isotherm 25° C.; for water still contained at the inflection at about 40% RH in desorption: about 40% RH (corresponds to about 4 water molecules); for weight change preserved in desorption up to 50% RH: stable up to 50% RH (corresponds to about 8 water molecules)
Method: (§1) To check the stability of the samples DVS (Dynamic vapour sorption) measurements were made using the DVS Intrinsic SMS instrument. The weight change of the sample associated with the change in humidity in a chamber at constant temperature was determined. Each sample was weighed in a range from […], with mass change equal to ±150 mg and mass resolution equal to ±0.1 μg, and positioned in the instrument and analysed at 25° C.±0.1 and 40° C.±0.1 in a relative humidity range comprised between 0% RH and 90% RH with increments of 10% RH, accuracy equal to ±1% RH. Moreover, the sample is brought from 0-90-0% RH with stages of 10% RH. The duration of these stages is as a function of the stabilization of the weight: if the weight change remains less than 0.002 dm (%)/dt (min) for 10 min, it goes on to the next stage. However, the stabilization for each stage cannot last more than 6 hours and in that case the instrument passes on to the next stage. The last stage contemplates the stabilization of the sample at 0% RH for 4 hours.
In order to verify the stability of the samples DVS (Dynamic vapour sorption) measurements were carried out using the DVS Intrinsic SMS instrument. The weight change of the sample associated with the change in humidity in a chamber at constant temperature was determined. Each sample was positioned in the instrument and analysed at 25° C.±0.1 in a humidity range that ranges from 0% to 90% RH with increments of 10% RH, RH accuracy equal to ±1% RH. The sample is stabilized at 0% RH for 4 hours. The duration of the single stages is as a function of the stabilization of the weight: if the weight change remains less than 0.002 dm (%)/dt (min) for 10 min, it goes on to the next stage. The stabilization cannot last more than 6 hours and in that case it passes on to the next stage. The last stage contemplates the stabilization of the sample at 0% RH for 4 hours.
(§2) To check the stability of the samples DVS (Dynamic vapour sorption) measurements were made using the DVS Intrinsic SMS instrument. The weight change of the sample associated with the change in humidity in a chamber at constant temperature was determined. Each sample was positioned in the instrument and analysed at 25° C.±0.1 in a humidity range from 0% RH to 90% RH with increments of 10% RH, accuracy equal to ±1% RH. The sample is stabilized at 0% RH for 4 hours. The duration of the single stages is as a function of the stabilization of the weight: if the weight change remains less than 0.002 dm (%)/dt (min) for 10 min, it goes on to the next stage. The stabilization cannot last more than 6 hours and in that case it passes on to the next stage. The last stage contemplates the stabilization of the sample at 0% RH for 4 hours.

[2] = Reprecipitation of FI/FII 1:1 (w/w) in ethyl acetate, 48 hours at 25° C., XPRD of the solid
Method: Into a 2 liter jacketed reactor 1000 ml of ethyl acetate (EtOAc) is loaded, the mechanical stirrer is actuated setting the rate to 200 rpm and then 25 g of polymorphic form FI and 25 g of polymorphic form FII are slowly added. It is left under stirring for 48 hours at a temperature of 25° C.
It is filtered on buckner and the white solid obtained is washed with 50 ml of EtOAc (1 Volume with respect to the loaded total dry solid NaHDC polymorphic form FI and NaHDC polymorphic form FII).

[3] = Dynamic vapour sorption (DVS) analysis in isotherm at 40° C.; conditions: DVS isotherm 40° C.
Method: as §1
as §2, with “Each sample is positioned in” for “Each sample was positioned in”, “analysed at 40° C.±0.1 in” for “analysed at 25° C.±0.1 in”, “from 0% to 90%” for “from 0% RH to 90%”, “10% RH, RH accuracy equal” for “10% RH, accuracy equal”, “of the weight, if the” for “of the weight: if the”

[4] = Thermal stability by DSC and XPRD at variable temperature; conditions: for temperature up to which the form is stable: DSC / XPRD at variable temperature
Method: The thermal properties of the polymorphic forms described were obtained through differential scanning calorimetry (DSC). The DSC profiles were obtained with a heat flow instrument DSC 200 F3 Maia® (Netzsch). The DSC 200 F3 Maia® instrument was calibrated for temperature and enthalpy with an indium standard (melting point: 156.6° C.; ΔHf=28.45 Jg^−1). The samples were analysed according to the following conditions: • temperature range: 25-350° C.; • heating rate: 10° C./min; • sample-holder: perforated aluminium crucible; • gas: anhydrous nitrogen at a flow rate of 60 mL/min.
In order to determine the X-ray powder diffraction profiles (XPRD) a diffractometer Panalytical X'Pert Pro equipped with detector X'Celerator and X-ray tube (PW3373/00 Cu LFF DK312503) with current intensity 40 mA and voltage 40 kV was used. The instrument was calibrated with a silicon powder standard PANalytical640. The sample was positioned on a glass sample-carrier and analysed using the following parameters: • Scanning range(°): 3.0010-39.9997 • Data acquisition range(°): 0.0167 • Scanning mode: Continuous • Counter time (s): 12,700 • soller slits (rad): 0.04 • divergence slits: ¼ • anti-scatter slits: ½

[5] = Stability of the polymorphic form in the formulation of a medicinal product; conditions: inserted into the formulation of a medicinal product
[6] = Stability tests according to guidelines ICH Q1A at 25° C./60% RH and 40° C./75% RH
[7] = listed as mixture of forms of NaHDC

| Structure (SMILES) | water still contained at the inflection at about 40% RH in desorption [1] | weight change preserved in desorption up to 50% RH [1] | weight change in sorption at 90% RH [1] | weight change at 0% RH in desorption [1] | weight change in sorption at 30% RH [1] | weight change in sorption at 70% RH [1] | weight change at 0% RH in desorption ([3]; desorption) | weight change in sorption at 70% RH ([3]; sorption) | weight change in sorption at 90% RH ([3]; sorption) | temperature up to which the form is stable [4] [°C] | further results |
| --- | --- | --- | --- | --- | --- | --- | --- | --- | --- | --- | --- |
| C[C@H](CCC(=O)[O-])[C@H]1CC[C@H]2[C@@H]3C[C@H](O)[C@@H]4C[C@H](O)CC[C@]4(C)[C@H]3CC[C@]12C.[Na+] [NaHDC mixture, sodium 3α,6α-dihydroxy-5β,-cholan-24-oate] | about 18% | about 34% | about 35% |  |  |  |  |  |  |  | water still contained at the inflection at about 40% RH in desorption [1, 7]: about 18%; change in weight in sorption at 20% RH [1]: about 3%; change in weight in sorption at 20% RH [1, 7]: about 3%; weight change in sorption at 70% RH [1, 7]: 15% |
| C[C@H](CCC(=O)[O-])[C@H]1CC[C@H]2[C@@H]3C[C@H](O)[C@@H]4C[C@H](O)CC[C@]4(C)[C@H]3CC[C@]12C.[Na+] [amorphous form of NaHDC, sodium 3α,6α-dihydroxy-5β,-cholan-24-oate] | about 17% | about 34% | about 35% | weight that is less than the starting weight | about 6% | 22% |  |  |  |  |  |
| C[C@H](CCC(=O)[O-])[C@H]1CC[C@H]2[C@@H]3C[C@H](O)[C@@H]4C[C@H](O)CC[C@]4(C)[C@H]3CC[C@]12C.[Na+] [polymorphic form FI, sodium 3α,6α-dihydroxy-5β,-cholan-24-oate] | about 18% | about 34% | about 35% | zero | about 2% |  | zero | 8% | about 43% | 280 | interconversion of the polymorphic form on reprecipitation ([2]; FI and FII 1:1 weight/weight, ethyl acetate, 48 hours, room temperature (20-25° C.)): completely converts into the polymorphic form FII; also recorded: interconverts into the polymorphic form FII; change in weight at the plateau at 50-40% RH in desorption ([3]; desorption, 50-40% RH): about 17%; weight change in sorption at 30% RH ([3]; sorption, 30% RH): about 2% |
| C[C@H](CCC(=O)[O-])[C@H]1CC[C@H]2[C@@H]3C[C@H](O)[C@@H]4C[C@H](O)CC[C@]4(C)[C@H]3CC[C@]12C.[Na+] [polymorphic form FII, sodium 3α,6α-dihydroxy-5β,-cholan-24-oate] | about 18% | about 34% | about 35% | zero |  | less than 2% | about 6% | less than 2% | about 45% | 260 | stability over time in the formulation (interconversion into other polymorphic forms) [5]: stable over time; stability with regard to humidity in ICH Q1A tests [6]: surprising and unforeseeable stability with regard to humidity both at 25 °C and at 40 °C; thermodynamic stability among the forms ([2]; room temperature): most thermodynamically stable one at room temperature and up to 260 °C; also recorded: most thermodynamically stable form at room temperature; shape of the desorption curve at 50-40% RH ([3]; desorption, 50-40% RH): plateau; relative humidity up to which the sample is stable in sorption ([3]; sorption): about 70 % RH; temperature of conversion into the polymorphic form FI on heating ([4]; heating, solid-solid conversion into form FI): 280 °C; hygroscopic behaviour ([1]; humidity sorption cycle in isotherm at 25° C. and at 40° C. (FIGS. 10-13, 27, 28, 58)): non-hygroscopic |
